4 molecules from patent US20240199558A1, “2,4,6-TRISUBSTITUTED 1,3,5-TRIAZINES AS MODULATORS OF CX3CR1” (ASTRAZENECA AB, priority 2022, published 2024) can be followed below.

pEC50, pIC50: −log10 of the molar value.

The term pIC50 denotes −log10 of the IC50, conventionally taken in molar units. One may read the pEC50 as the EC50 on a negative log10 scale, so that one unit is a factor of ten. Higher therefore signals a low EC50.

Assay [1] concerns the target T1, CX3CR1 (Homo sapiens (Human), UniProt P49238). In words: hCX3CR1 [3H]-AZD8797 competitive binding assay (filter). Conditions: CHO-hCX3CR1 membranes, 2 nM [3H]-AZD8797. In outline: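 CHO-hCX3CR1 membranes (9 μg/well) were incubated 2 h at room temperature with 2 nM [3H]-AZD8797 and varying competitor concentrations. Buffer: 25 mM HEPES pH 7.4, 10 mM MgCl2, 1 mM CaCl2, 0.5% BSA, 1% DMSO. Bound ligand was collected by vacuum filtration, washed in ice-cold buffer with 500 mM NaCl, and counted by scintillation.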

Assay [2] has as its target T1, CX3CR1. In words: hCX3CR1 [125I]-CX3CL1 displacement binding (SPA). The note with it: CHO-hCX3CR1 membranes, [125I]-CX3CL1, SPA beads. In outline: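 SPA competition binding on CHO membranes expressing human CX3CR1, with […] [125I]-CX3CL1 and varying competitor concentrations, WGA PVT beads, 50 mM HEPES pH 7.4, 10 mM MgCl2, 1 mM EDTA, 0.1% gelatin, 1% DMSO. Incubated 20 h at room temperature; bound radioactivity counted.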

Assay [3] addresses T1, CX3CR1. In words: CX3CR1-dependent cell adhesion to recombinant CX3CL1 in human whole blood under flow. It counts as cell-based. Conditions: recombinant full-length CX3CL1. How it is done: (§1) Adhesion of cells to recombinant full-length human CX3CL1 was monitored under physiological flow using a Cellix VenaFlux microfluidics platform with connected fluorescent microscope and camera, and using Vena8 Fluoro+ Biochips (Cellix) pre-coated with anti-His monoclonal antibody (25 μg/mL; R&D Systems) and His-tagged full-length CX3CL1 (15 μg/mL; R&D Systems).
CX3CR1-Dependent Cell Adhesion to Recombinant CX3CL1 in Human Whole Blood Under Flow
Human whole blood from healthy volunteers was collected using heparin as anti-coagulant. […] Compound stocks or DMSO vehicle were added to 0.5 or 1.0 ml aliquots of blood such that the final concentration of DMSO was 0.1%, corresponding to a 1000-fold dilution of compound stock. Blood was pre-incubated with compound at room temperature for 60 minutes with gentle shaking. DiOC6 (Invitrogen, 5 μM) or Hoechst 33342 (Invitrogen, 300 μM) dye was subsequently added to fluorescently label cells and enable their detection during the flow adhesion assay. To monitor adhesion, blood was allowed to flow through the channels of a Vena8 Fluoro+ biochip at 2.25 dynes per cm^2 for 3-6 minutes prior to capturing images for quantification. Fluorescent cells adhering to the channels were counted and the mean and/or total count across five to six images in each channel were used for calculating concentration-response curves.

Assay [4] has as its target T1, CX3CR1. As to the kind of experiment: PathHunter β-arrestin recruitment assay. Type of assay: cell-based. The note with it: CHO-K1 CX3CR1 β-Arrestin cells, with CX3CL1. The method, then:
PathHunter β-Arrestin Recruitment Assay
β-Arrestin recruitment was measured using the PathHunter® eXpress enzyme fragment complementation assay (DiscoverX #93-0956E2). 3500 CHO-K1 CX3CR1 β-Arrestin cells/well in Opti-MEM were incubated together with different concentrations of CX3CL1 and antagonistic compound in a Greiner tissue culture treated flat-bottom 384-well plate. After 90 min of incubation at 37° C., the detection reagent supplied in the kit was added and incubation continued for 1 h at room temperature, before reading the luminescence with a Victor2 luminescence plate reader (PerkinElmer). The final DMSO concentration was held constant at 1%.
For orientation: Arrestin recruitment assays detect the binding of arrestin to an activated receptor.

The target of assay [5] is T1, CX3CR1. In words: Flow adhesion for human B-lymphocyte cell line RPMI-8226. It counts as cell-based. The note with it: RPMI-8226 cells under flow, recombinant full-length CX3CL1. The method, then:
as §1
Flow Adhesion for Human B-Lymphocyte Cell Line RPMI-8226
Cells were cultured in RPMI 1640 medium with GlutaMAX and 20% FBS (HyClone, Perbio). Before each experiment, cells were centrifuged at 320 g and resuspended to 5×10^6 cells per ml in RPMI 1640 with 1% FBS. Cells were pre-incubated for 15 minutes at room temperature with CX3CR1 antagonist in an 8-step 3-fold dilution series starting at 3.3 μM. DMSO concentration was kept constant for all antagonist concentrations at 0.1%. Cells were pumped through the channels of the Vena8 Fluoro+ biochip at 0.5 dynes per cm2 for 3 m prior to capturing microscope images for quantification. Cells adhering to channels were counted and the mean values across five images in each channel were used for calculating the concentration-response curves.

T1 sequence (P49238 whole entry): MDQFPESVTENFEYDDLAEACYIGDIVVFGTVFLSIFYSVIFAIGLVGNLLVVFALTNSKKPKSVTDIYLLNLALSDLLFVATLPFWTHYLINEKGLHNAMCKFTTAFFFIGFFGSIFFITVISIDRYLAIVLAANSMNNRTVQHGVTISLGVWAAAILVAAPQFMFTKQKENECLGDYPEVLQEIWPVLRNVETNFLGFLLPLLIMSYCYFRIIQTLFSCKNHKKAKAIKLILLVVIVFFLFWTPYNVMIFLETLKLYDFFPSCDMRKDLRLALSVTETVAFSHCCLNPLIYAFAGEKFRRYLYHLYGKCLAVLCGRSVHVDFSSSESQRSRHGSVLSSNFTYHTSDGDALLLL

Consider `COc1ncc([C@H](C)Cc2nc(N[C@@H](CO)CC(C)C)nc(NS(C)(=O)=O)n2)cc1F` (single isomer, unassigned) [Example 7, N-(4-((R*)-2-(5-Fluoro-6-methoxypyridin-3-yl)propyl)-6-(((R)-1-hydroxy-4-methylpentan-2-yl)amino)-1,3,5-triazin-2-yl)methanesulfonamide], for which the pIC50 in assay [1] is 7.26; in assay [2], less than 5.00; in assay [3] it was 5.61; in assay [5], 6.89. In assay [4], this molecule had a pEC50 of 6.40.
For `COc1cc(F)c([C@H](C)Cc2nc(N[C@@H](CO)CC(C)C)nc(NS(C)(=O)=O)n2)cn1` (single isomer, unassigned) [Example 46, N-(4-((R*)-2-(4-Fluoro-6-methoxypyridin-3-yl)propyl)-6-(((R)-1-hydroxy-4-methylpentan-2-yl)amino)-1,3,5-triazin-2-yl)methanesulfonamide], the results for the pIC50 in assay [1] and in assay [3] were 7.28 and 5.85, respectively. Besides, the pEC50 in assay [4] is 7.00.
As for `COc1ccc([C@H](C)Cc2nc(N[C@@H](CO)CC(C)C)nc(NS(C)(=O)=O)n2)c(F)n1` (single isomer, unassigned) [Example 85, N-(4-((R*)-2-(2-Fluoro-6-methoxypyridin-3-yl)propyl)-6-(((R)-1-hydroxy-4-methylpentan-2-yl)amino)-1,3,5-triazin-2-yl)methanesulfonamide], the values for the pIC50 in assay [1] and in assay [3] were 7.74 and 6.16, respectively. In assay [4], the pEC50 was 7.30.
Turning to `CC(C)C[C@H](CO)Nc1nc(C[C@@H](C)c2cccc(F)c2F)nc(NS(C)(=O)=O)n1` (single isomer, unassigned) [Example 144, N-(4-((R*)-2-(2,3-Difluorophenyl)propyl)-6-(((R)-1-hydroxy-4-methylpentan-2-yl)amino)-1,3,5-triazin-2-yl)methanesulfonamide], the pIC50 in assay [1] is 7.89; in assay [2], 6.98; in assay [3], 6.82; in assay [5], 8.22. The same molecule showed a pEC50 in assay [4] of 7.37.
